According to US10045999B2, “Nutritional composition for the stimulation of muscle protein synthesis” (N. V. Nutricia, priority 2010, dated 2018):
Marks after values point to notes of the source that are not given here.

Tested on: C2C12 myotubes
Assay: Protein synthesis rate (FSR) in C2C12 myotubes after pretreatment with 1,25(OH)2 Vitamin D3, with or without leucine and insulin
Assay type: cell-based, mouse
Details: for increase in muscle protein synthesis rate: C2C12 myotubes treated only with vitamin D3, with leucine alone, or with both; for change (%) in protein synthesis rate vs no pretreatment with vitamin D3: 72 h pretreatment
Description: An experimental in vitro study is performed to evaluate the synergistic or additional action of leucine and vitamin D on intracellular pathways regulating protein synthesis in muscle cells.
C2C12 mouse myoblasts are obtained from the American Type Culture Source Collection (no. CRL-1772). Myoblasts are cultured at 37° C. in an atmosphere of 5% CO2 in grown medium consisting of Dulbecco's modified Eagle's medium (DMEM) supplemented with 10% foetal calf serum and antibiotics. Myotube C2C12 differentiation is induced by withdrawing foetal calf serum from confluent cells and adding 10 μg/ml insulin, 5 μg/ml transferrin and 2% horse serum.
Confluent C2C12 myotubes are treated with vehicles alone or with different doses of 1,25(OH)2 D3. Subsequently, the cells are deprived of horse serum by incubation in a serum-free medium for the two remaining hours. During this deprivation period, different amounts of leucine and insulin are added to the medium before harvesting cells.
Medium with or without leucine supplementation are used to assess the synergistic or additional action of leucine and vitamin D on intracellular pathways regulating protein synthesis (Akt, mTOR) and/or on direct measure of protein synthesis.
Protein synthesis rate (FSR) in C2C12 myotubes after 72 h pretreatments with 0, 1 or 10 nm of 1,25(OH)2 Vitamin D3 is depicted in FIG. 1.
FIG. 1: Protein synthesis rate (FSR) in C2C12 myotubes after 72 h pretreatments with 0, 1 or 10 nm of 1,25(OH)2 Vitamin D3.

| Compound | increase in muscle protein synthesis rate [%] | effect on muscle protein synthesis (in words) (C2C12 myotubes, vitamin D3 dose 1 or 10 nM) | change (%) in protein synthesis rate vs no pretreatment with vitamin D3 ([Vitamin D] = 1 nM, Ins + leu, vs [Vit D] = 0 Ins + leu) | change (%) in protein synthesis rate vs no pretreatment with vitamin D3 ([Vitamin D] = 1 nM, No stim, vs [Vit D] = 0 No stim) | change (%) in protein synthesis rate vs no pretreatment with vitamin D3 ([Vitamin D] = 10 nM, Ins + leu, vs [Vit D] = 0 Ins + leu) | change (%) in protein synthesis rate vs no pretreatment with vitamin D3 ([Vitamin D] = 10 nM, No stim, vs [Vit D] = 0 No stim) |
| --- | --- | --- | --- | --- | --- | --- |
| C=C1/C(=C\C=C2/CCC[C@]3(C)[C@@H]([C@H](C)CCCC(C)(C)O)CC[C@@H]23)C[C@@H](O)C[C@@H]1O [Vitamin D, 1,25-dihydroxycholecalciferol] | 14.3 | can stimulate muscle protein synthesis independently of leucine presence | 9.8* % | 14.0* % | 14.3* % | 14.3* % |
| CC(C)C[C@H](N)C(=O)O [leucine, L-leucine] | 10.7 | – | – | – | – | – |
